In patent publication US20100092526A1, “NANOEMULSION THERAPEUTIC COMPOSITIONS AND METHODS OF USING THE SAME” (NanoBio Corporation, priority 2008, published 2010):
≈ marks a conversion by molar mass, not a printed value. Read-outs that look alike come from different tables or passages of the source.

How the values were obtained:
Pseudomonas aeruginosa = assay: MIC/MBC against CF isolates (CLSI, alamar blue)
Burkholderia cenocepacia = assay: MIC/MBC against CF isolates (CLSI, alamar blue); settings: Burkholderia cenocepacia
[1] = system: Stenotrophomonas maltophilia; assay: MIC/MBC against CF isolates (CLSI, alamar blue); settings: Stenotrophomonas maltophilia
Acinetobacter baumannii = assay: MIC/MBC against clinical isolates (CLSI, alamar blue); settings: Acinetobacter baumannii
[2] = Pseudomonas aeruginosa, CF Pseudomonas isolate NB1
[3] = Pseudomonas aeruginosa, CF Pseudomonas isolate NB2
[4] = Pseudomonas aeruginosa, CF Pseudomonas isolate NB3
[5] = Pseudomonas aeruginosa, CF Pseudomonas isolate NB4
[6] = Pseudomonas aeruginosa, CF Pseudomonas isolate NB5
[7] = Pseudomonas aeruginosa, CF Pseudomonas isolate NB6
[8] = Pseudomonas aeruginosa, CF Pseudomonas isolate NB7
[9] = Pseudomonas aeruginosa, CF Pseudomonas isolate NB8
[10] = Pseudomonas aeruginosa, CF Pseudomonas isolate NB9
[11] = Pseudomonas aeruginosa, CF Pseudomonas isolate NB10
[12] = Pseudomonas aeruginosa, CF Pseudomonas isolate NB11
[13] = Pseudomonas aeruginosa, CF Pseudomonas isolate NB12
[14] = Pseudomonas aeruginosa, CF Pseudomonas isolate NB13
[15] = Pseudomonas aeruginosa, CF Pseudomonas isolate NB14
[16] = Pseudomonas aeruginosa, CF Pseudomonas isolate NB15
[17] = Pseudomonas aeruginosa, CF Pseudomonas isolate NB16
[18] = Pseudomonas aeruginosa, CF Pseudomonas isolate NB17
[19] = Pseudomonas aeruginosa, CF Pseudomonas isolate NB18
[20] = Pseudomonas aeruginosa, CF Pseudomonas isolate NB19
[21] = Pseudomonas aeruginosa, CF Pseudomonas isolate NB20
[22] = CF Stenotrophomonas isolate NB41
[23] = CF Stenotrophomonas isolate NB42
[24] = CF Stenotrophomonas isolate NB43
[25] = CF Stenotrophomonas isolate NB44
[26] = CF Stenotrophomonas isolate NB45
[27] = CF Stenotrophomonas isolate Steno 1
[28] = CF Stenotrophomonas isolate Steno 2
[29] = CF Stenotrophomonas isolate Steno 3
[30] = CF Stenotrophomonas isolate Steno 4
[31] = CF Stenotrophomonas isolate Steno 6
[32] = CF Stenotrophomonas isolate Steno 8

Q: What does the source list for `CO[C@@]1(NC(=O)Cc2cccs2)C(=O)N2C(C(=O)O)=C(COC(N)=O)CS[C@@H]21` [Cefoxitin]?
A: MBC 90 (Pseudomonas aeruginosa; 20 CF Pseudomonas isolates): >256 µg/mL; MIC50 (Pseudomonas aeruginosa; Pseudomonas aeruginosa): > 256 µg/mL; MIC90 (Pseudomonas aeruginosa; Pseudomonas aeruginosa): > 256 µg/mL; MBC (Pseudomonas aeruginosa; [2]): > 256 µg/mL; MIC (Pseudomonas aeruginosa; [2]): > 256 µg/mL; MBC (Pseudomonas aeruginosa; [3]): > 256 µg/mL; MIC (Pseudomonas aeruginosa; [3]): > 256 µg/mL; MBC (Pseudomonas aeruginosa; [4]): > 256 µg/mL; MIC (Pseudomonas aeruginosa; [4]): > 256 µg/mL; MBC (Pseudomonas aeruginosa; [5]): > 256 µg/mL; MIC (Pseudomonas aeruginosa; [5]): > 256 µg/mL; MBC (Pseudomonas aeruginosa; [6]): > 256 µg/mL; MIC (Pseudomonas aeruginosa; [6]): > 256 µg/mL; MBC (Pseudomonas aeruginosa; [7]): > 256 µg/mL; MIC (Pseudomonas aeruginosa; [7]): > 256 µg/mL; MBC (Pseudomonas aeruginosa; [8]): > 256 µg/mL; MIC (Pseudomonas aeruginosa; [8]): > 256 µg/mL; MBC (Pseudomonas aeruginosa; [9]): > 256 µg/mL; MIC (Pseudomonas aeruginosa; [9]): > 256 µg/mL; MBC (Pseudomonas aeruginosa; [10]): > 256 µg/mL; MIC (Pseudomonas aeruginosa; [10]): > 256 µg/mL; MBC (Pseudomonas aeruginosa; [11]): > 256 µg/mL; MIC (Pseudomonas aeruginosa; [11]): > 256 µg/mL; MBC (Pseudomonas aeruginosa; [12]): > 256 µg/mL; MIC (Pseudomonas aeruginosa; [12]): > 256 µg/mL; MBC (Pseudomonas aeruginosa; [13]): > 256 µg/mL; MIC (Pseudomonas aeruginosa; [13]): > 256 µg/mL; MBC (Pseudomonas aeruginosa; [14]): > 256 µg/mL; MIC (Pseudomonas aeruginosa; [14]): > 256 µg/mL; MBC (Pseudomonas aeruginosa; [15]): > 256 µg/mL; MIC (Pseudomonas aeruginosa; [15]): > 256 µg/mL; MBC (Pseudomonas aeruginosa; [16]): > 256 µg/mL; MIC (Pseudomonas aeruginosa; [16]): > 256 µg/mL; MBC (Pseudomonas aeruginosa; [17]): > 256 µg/mL; MIC (Pseudomonas aeruginosa; [17]): > 256 µg/mL; MBC (Pseudomonas aeruginosa; [18]): > 256 µg/mL; MIC (Pseudomonas aeruginosa; [18]): > 256 µg/mL; MBC (Pseudomonas aeruginosa; [19]): > 256 µg/mL; MIC (Pseudomonas aeruginosa; [19]): > 256 µg/mL; MBC (Pseudomonas aeruginosa; [20]): > 256 µg/mL; MIC (Pseudomonas aeruginosa; [20]): > 256 µg/mL; MBC (Pseudomonas aeruginosa; [21]): > 256 µg/mL; MIC (Pseudomonas aeruginosa; [21]): > 256 µg/mL; MBC (Pseudomonas aeruginosa; Pseudomonas aeruginosa, read-out: MBC 50, 20 CF Pseudomonas isolates): > 256 µg/mL; MBC (Pseudomonas aeruginosa; Pseudomonas aeruginosa, read-out: MBC 50, second MBC 50 line of the summary, Stenotrophomonas, values equal those of the CF Pseudomonas isolates): > 256 µg/mL; MIC90 (Burkholderia cenocepacia): 256 µg/mL (≈ 599 µM); MIC50 (Burkholderia cenocepacia; 10 CF Burkholderia isolates): 128 µg/mL (≈ 299 µM); MBC (Burkholderia cenocepacia; CF Burkholderia isolate NB21): > 256 µg/mL; MIC (Burkholderia cenocepacia; CF Burkholderia isolate NB21): 256 µg/mL (≈ 599 µM); MBC (Burkholderia cenocepacia; CF Burkholderia isolate NB22): 256 µg/mL (≈ 599 µM); MIC (Burkholderia cenocepacia; CF Burkholderia isolate NB22): 128 µg/mL (≈ 299 µM); MBC (Burkholderia cenocepacia; CF Burkholderia isolate NB23): > 256 µg/mL; MIC (Burkholderia cenocepacia; CF Burkholderia isolate NB23): > 256 µg/mL; MBC (Burkholderia cenocepacia; CF Burkholderia isolate NB24): > 256 µg/mL; MIC (Burkholderia cenocepacia; CF Burkholderia isolate NB24): 128 µg/mL (≈ 299 µM); MBC (Burkholderia cenocepacia; CF Burkholderia isolate NB25): 256 µg/mL (≈ 599 µM); MIC (Burkholderia cenocepacia; CF Burkholderia isolate NB25): 128 µg/mL (≈ 299 µM); MBC (Burkholderia cenocepacia; CF Burkholderia isolate NB26): 256 µg/mL (≈ 599 µM); MIC (Burkholderia cenocepacia; CF Burkholderia isolate NB26): 128 µg/mL (≈ 299 µM); MBC (Burkholderia cenocepacia; CF Burkholderia isolate NB27): > 256 µg/mL; MIC (Burkholderia cenocepacia; CF Burkholderia isolate NB27): 128 µg/mL (≈ 299 µM); MBC (Burkholderia cenocepacia; CF Burkholderia isolate NB28b): 16 µg/mL (≈ 37.4 µM); MIC (Burkholderia cenocepacia; CF Burkholderia isolate NB28b): 16 µg/mL (≈ 37.4 µM); MBC (Burkholderia cenocepacia; CF Burkholderia isolate NB29): > 256 µg/mL; MIC (Burkholderia cenocepacia; CF Burkholderia isolate NB29): 256 µg/mL (≈ 599 µM); MBC (Burkholderia cenocepacia; CF Burkholderia isolate NB30): 128 µg/mL (≈ 299 µM); MIC (Burkholderia cenocepacia; CF Burkholderia isolate NB30): 128 µg/mL (≈ 299 µM); MIC50 [1]: > 256 µg/mL; MIC90 [1]: > 256 µg/mL; MBC [1, 22]: > 256 µg/mL; MIC [1, 22]: > 256 µg/mL; MBC [1, 23]: > 256 µg/mL; MIC [1, 23]: > 256 µg/mL; MBC [1, 24]: > 256 µg/mL; MIC [1, 24]: > 256 µg/mL; MBC [1, 25]: > 256 µg/mL; MIC [1, 25]: 256 µg/mL (≈ 599 µM); MBC [1, 26]: > 256 µg/mL; MIC [1, 26]: > 256 µg/mL; MBC [1, 27]: > 256 µg/mL; MIC [1, 27]: > 256 µg/mL; MBC [1, 28]: > 256 µg/mL; MIC [1, 28]: > 256 µg/mL; MBC [1, 29]: > 256 µg/mL; MIC [1, 29]: 256 µg/mL (≈ 599 µM); MBC [1, 30]: 256 µg/mL (≈ 599 µM); MIC [1, 30]: 256 µg/mL (≈ 599 µM); MBC [1, 31]: 256 µg/mL (≈ 599 µM); MIC [1, 31]: 128 µg/mL (≈ 299 µM); MBC [1, 32]: > 256 µg/mL; MIC [1, 32]: > 256 µg/mL; MBC ([1]; read-out: MBC 50, 11 CF Stenotrophomonas isolates): > 256 µg/mL; MIC50 (Acinetobacter baumannii): > 256 µg/mL; MIC90 (Acinetobacter baumannii): > 256 µg/mL; MBC (Acinetobacter baumannii; Acinetobacter isolate NB31): > 256 µg/mL; MIC (Acinetobacter baumannii; Acinetobacter isolate NB31): > 256 µg/mL; MBC (Acinetobacter baumannii; Acinetobacter isolate NB32): 256 µg/mL (≈ 599 µM); MIC (Acinetobacter baumannii; Acinetobacter isolate NB32): 256 µg/mL (≈ 599 µM); MBC (Acinetobacter baumannii; Acinetobacter isolate NB33): > 256 µg/mL; MIC (Acinetobacter baumannii; Acinetobacter isolate NB33): > 256 µg/mL; MBC (Acinetobacter baumannii; Acinetobacter isolate NB34): > 256 µg/mL; MIC (Acinetobacter baumannii; Acinetobacter isolate NB34): > 256 µg/mL; MBC (Acinetobacter baumannii; Acinetobacter isolate NB35): > 256 µg/mL; MIC (Acinetobacter baumannii; Acinetobacter isolate NB35): > 256 µg/mL; MBC (Acinetobacter baumannii; Acinetobacter isolate NB36): 128 µg/mL (≈ 299 µM); MIC (Acinetobacter baumannii; Acinetobacter isolate NB36): 128 µg/mL (≈ 299 µM); MBC (Acinetobacter baumannii; Acinetobacter isolate NB37): > 256 µg/mL; MIC (Acinetobacter baumannii; Acinetobacter isolate NB37): > 256 µg/mL; MBC (Acinetobacter baumannii; Acinetobacter isolate NB38): > 256 µg/mL; MIC (Acinetobacter baumannii; Acinetobacter isolate NB38): > 256 µg/mL; MBC (Acinetobacter baumannii; Acinetobacter isolate NB39): > 256 µg/mL; MIC (Acinetobacter baumannii; Acinetobacter isolate NB39): > 256 µg/mL; MBC (Acinetobacter baumannii; Acinetobacter isolate NB40): > 256 µg/mL; MIC (Acinetobacter baumannii; Acinetobacter isolate NB40): > 256 µg/mL; MBC (Acinetobacter baumannii; read-out: MBC 50, 10 Acinetobacter isolates): > 256 µg/mL

Q: What does the source list for `CCN1CCN(C(=O)N[C@@H](C(=O)N[C@@H]2C(=O)N3[C@@H]2SC(C)(C)[C@@H]3C(=O)O)c2ccccc2)C(=O)C1=O` [Pipercillin]?
A: MBC (Pseudomonas aeruginosa; CF Pseudomonas isolate NB1): 1024 µg/mL (≈ 1980 µM); MIC (Pseudomonas aeruginosa; CF Pseudomonas isolate NB1): 1024 µg/mL (≈ 1980 µM); MBC (Pseudomonas aeruginosa; CF Pseudomonas isolate NB2): 128 µg/mL (≈ 247 µM); MIC (Pseudomonas aeruginosa; CF Pseudomonas isolate NB2): 128 µg/mL (≈ 247 µM); MBC (Pseudomonas aeruginosa; CF Pseudomonas isolate NB3): >1024 µg/mL; MIC (Pseudomonas aeruginosa; CF Pseudomonas isolate NB3): >1024 µg/mL; MBC (Pseudomonas aeruginosa; CF Pseudomonas isolate NB4): 1024 µg/mL (≈ 1980 µM); MIC (Pseudomonas aeruginosa; CF Pseudomonas isolate NB4): 512 µg/mL (≈ 989 µM); MBC (Pseudomonas aeruginosa; CF Pseudomonas isolate NB5): >1024 µg/mL; MIC (Pseudomonas aeruginosa; CF Pseudomonas isolate NB5): >1024 µg/mL; MBC (Pseudomonas aeruginosa; CF Pseudomonas isolate NB6): >1024 µg/mL; MIC (Pseudomonas aeruginosa; CF Pseudomonas isolate NB6): 1024 µg/mL (≈ 1980 µM); MBC (Pseudomonas aeruginosa; CF Pseudomonas isolate NB7): 1024 µg/mL (≈ 1980 µM); MIC (Pseudomonas aeruginosa; CF Pseudomonas isolate NB7): 512 µg/mL (≈ 989 µM); MBC (Pseudomonas aeruginosa; CF Pseudomonas isolate NB8): >1024 µg/mL; MIC (Pseudomonas aeruginosa; CF Pseudomonas isolate NB8): >1024 µg/mL; MBC (Pseudomonas aeruginosa; CF Pseudomonas isolate NB9): >1024 µg/mL; MIC (Pseudomonas aeruginosa; CF Pseudomonas isolate NB9): 512 µg/mL (≈ 989 µM); MBC (Pseudomonas aeruginosa; CF Pseudomonas isolate NB10): 512 µg/mL (≈ 989 µM); MIC (Pseudomonas aeruginosa; CF Pseudomonas isolate NB10): 256 µg/mL (≈ 495 µM)
